Reference: ChEMBL document CHEMBL1201862, “PubChem BioAssay data set” (2004)
Active and inactive are the calls of the source.

What was measured:
[1] = system: Streptococcus sp. 'group A'; experiment: growth inhibition of control SK(-) GAS strain, dose response, counter-screen for streptokinase expression inhibitor project, luminescence, kanamycin, BacTiterGlo, confirmation (AID 1900); format: functional, organism-based
[2] = target: Disintegrin and metalloproteinase domain-containing protein 17 (Homo sapiens, UniProt P78536); experiment: exosite inhibitors of ADAM17, dose response, biochemical (AID 743260)
Streptokinase A = target: T1, Streptokinase A (Streptococcus pyogenes serotype M1, UniProt P10520); experiment: S. pyogenes streptokinase expression inhibitors, potency, dose response, plasminogen activation absorbance, OD405 (AID 1914); format: functional, Streptococcus pyogenes M1 GAS;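 also: secreted streptokinase activity via plasminogen activation per viability signal from cell pellet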
T1 sequence (P10520 whole entry): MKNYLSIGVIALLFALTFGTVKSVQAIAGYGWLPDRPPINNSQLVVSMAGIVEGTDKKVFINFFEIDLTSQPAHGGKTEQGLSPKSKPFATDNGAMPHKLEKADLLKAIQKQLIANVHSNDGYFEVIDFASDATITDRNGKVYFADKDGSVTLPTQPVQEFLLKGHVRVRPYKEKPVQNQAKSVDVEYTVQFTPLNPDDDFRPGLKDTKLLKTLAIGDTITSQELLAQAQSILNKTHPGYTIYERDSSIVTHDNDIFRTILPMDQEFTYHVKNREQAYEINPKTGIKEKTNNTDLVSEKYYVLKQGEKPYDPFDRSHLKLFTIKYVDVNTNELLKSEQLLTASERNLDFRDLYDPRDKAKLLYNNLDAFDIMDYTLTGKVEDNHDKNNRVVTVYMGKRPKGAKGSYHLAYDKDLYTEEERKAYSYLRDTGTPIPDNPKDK

Streptococcus = experiment: Group A Streptococcus viability loss, dose response, counter-screen for streptokinase expression inhibitor project, luminescence, BacTiterGlo (AID 1915); format: functional, organism-based;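 also: potency for reduction of bacterial viability or growth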
[3] = target: T2, Sentrin-specific protease 8 (Homo sapiens, UniProt Q96LD8); format: functional
T2 sequence (Q96LD8 whole entry): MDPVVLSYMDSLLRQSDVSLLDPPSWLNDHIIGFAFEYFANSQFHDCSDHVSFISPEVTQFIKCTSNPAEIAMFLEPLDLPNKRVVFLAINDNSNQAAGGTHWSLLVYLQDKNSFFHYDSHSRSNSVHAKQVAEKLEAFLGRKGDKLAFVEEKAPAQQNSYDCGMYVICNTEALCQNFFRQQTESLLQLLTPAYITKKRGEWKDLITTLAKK

[4] = target: T2, Sentrin-specific protease 8; format: functional; remark: listed apart in the source
Protein RecA = target: T3, Protein RecA (Mycobacterium tuberculosis, UniProt P9WHJ3); experiment: Fluorescence Cell-Free Homogeneous Dose Retest to Identify Inhibitors of RecA-Intein Splicing Activity. [Related pubchem assays (depositor defined):AID2097, AID2223, AID489010, AID492950]; format: functional
T3 sequence (P9WHJ3 whole entry): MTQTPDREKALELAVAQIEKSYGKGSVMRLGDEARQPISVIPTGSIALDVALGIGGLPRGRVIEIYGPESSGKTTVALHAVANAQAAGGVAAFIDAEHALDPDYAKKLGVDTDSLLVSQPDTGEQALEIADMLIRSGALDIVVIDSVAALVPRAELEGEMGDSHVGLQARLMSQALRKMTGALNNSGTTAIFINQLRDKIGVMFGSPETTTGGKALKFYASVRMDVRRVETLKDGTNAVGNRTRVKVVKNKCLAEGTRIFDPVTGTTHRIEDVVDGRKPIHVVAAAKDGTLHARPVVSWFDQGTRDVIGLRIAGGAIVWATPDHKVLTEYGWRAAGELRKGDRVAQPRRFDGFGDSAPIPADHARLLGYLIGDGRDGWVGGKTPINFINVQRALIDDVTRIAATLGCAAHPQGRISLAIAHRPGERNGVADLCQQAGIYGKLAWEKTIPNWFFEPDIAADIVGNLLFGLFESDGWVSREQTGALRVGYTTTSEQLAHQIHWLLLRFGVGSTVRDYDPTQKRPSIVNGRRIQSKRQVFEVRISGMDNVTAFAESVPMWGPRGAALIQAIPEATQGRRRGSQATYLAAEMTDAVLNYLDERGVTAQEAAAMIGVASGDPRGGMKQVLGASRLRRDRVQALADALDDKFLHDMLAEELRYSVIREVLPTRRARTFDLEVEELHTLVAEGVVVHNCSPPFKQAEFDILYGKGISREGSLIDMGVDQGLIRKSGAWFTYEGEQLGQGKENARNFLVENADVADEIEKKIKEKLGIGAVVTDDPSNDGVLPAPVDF

[5] = target: T4, Replicative DNA helicase DnaB (Mycobacterium tuberculosis, UniProt P9WMR3); experiment: DnaB intein splicing inhibitors, dose response, biochemical, cell-free fluorescence (AID 449749); format: functional
T4 sequence (P9WMR3 whole entry): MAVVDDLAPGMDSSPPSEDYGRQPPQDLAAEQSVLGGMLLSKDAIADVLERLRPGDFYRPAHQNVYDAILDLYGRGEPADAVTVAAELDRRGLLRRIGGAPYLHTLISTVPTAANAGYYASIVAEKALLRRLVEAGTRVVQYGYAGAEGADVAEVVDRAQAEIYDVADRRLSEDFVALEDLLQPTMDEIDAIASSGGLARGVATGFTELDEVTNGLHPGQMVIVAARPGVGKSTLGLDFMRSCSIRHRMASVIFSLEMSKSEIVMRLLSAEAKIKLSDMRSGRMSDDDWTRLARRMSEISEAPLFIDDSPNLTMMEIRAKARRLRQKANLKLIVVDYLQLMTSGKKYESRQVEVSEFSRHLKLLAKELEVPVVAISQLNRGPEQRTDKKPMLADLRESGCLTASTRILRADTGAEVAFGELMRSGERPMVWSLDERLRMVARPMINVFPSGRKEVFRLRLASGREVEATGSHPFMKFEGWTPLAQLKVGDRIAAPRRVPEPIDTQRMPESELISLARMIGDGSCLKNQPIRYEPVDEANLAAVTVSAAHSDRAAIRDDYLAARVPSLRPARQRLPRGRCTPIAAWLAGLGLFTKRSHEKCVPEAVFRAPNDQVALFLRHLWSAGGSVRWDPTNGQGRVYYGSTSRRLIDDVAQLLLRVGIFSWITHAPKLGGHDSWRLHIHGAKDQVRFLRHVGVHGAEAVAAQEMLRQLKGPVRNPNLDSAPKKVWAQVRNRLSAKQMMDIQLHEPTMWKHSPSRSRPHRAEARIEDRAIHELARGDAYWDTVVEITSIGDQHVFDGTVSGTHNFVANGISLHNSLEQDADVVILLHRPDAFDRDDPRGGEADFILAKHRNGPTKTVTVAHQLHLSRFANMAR

Beta-lactamase [6] = target: T5, Beta-lactamase (Salmonella choleraesuis (strain SC-B67), UniProt Q5J463)
Beta-lactamase [7] = target: T6, Beta-lactamase (Pseudomonas aeruginosa, UniProt Q79MP6)
Cryptococcus neoformans = experiment: PubChem AID 686997; format: functional, organism-based
[8] = Luminescence Cell-Based Dose Retest to Confirm Inhibitors of Cancer Stem Cells. [Related pubchem assays (depositor defined):AID2717, AID2721]; format: functional; conditions: Homo sapiens
Beta-lactamase [9] = target: T5, Beta-lactamase; experiment: Epi-absorbance-based counterscreen for selective VIM-2 inhibitors: dose response biochemical high throughput screening assay to identify inhibitors of TEM-1 serine-beta-lactamase.
[10] = target: FAD-linked sulfhydryl oxidase ALR (Homo sapiens, UniProt P55789); experiment: inhibitors of human ALR sulfhydryl oxidase, dose response, biochemical, H2O2 detection, luminescence, cherry-pick (AID 493248)
Beta-lactamase [11] = target: T6, Beta-lactamase; experiment: […] counterscreen for selective VIM-2 inhibitors: dose response biochemical high throughput screening assay to identify inhibitors of IMP-1 metallo-beta-lactamase.
Beta-lactamase [12] = target: T6, Beta-lactamase; experiment: IMP-1 metallo-beta-lactamase inhibitors, dose response, selectivity assay for VIM-2 inhibitor project, biochemical, epi-absorbance (AID 1920)
[13] = cytotoxicity toward NIH3T3 fibroblasts, dose response, counter-screen, cell-based, ATP luminescence, mouse fibroblasts (AID 2010); format: functional;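 also: cells exposed to compound for about 90 hours before reading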
[14] = target: Botulinum neurotoxin type F (Clostridium botulinum, UniProt P30996); experiment: High-throughput multiplex microsphere dose response for inhibitors of toxin protease, specifically Botulinum neurotoxin light chain F protease, compounds from Cherry Pick 02.; format: functional; conditions: read-out: EC50_MICROM
[15] = target: T7, Long-chain-fatty-acid--AMP ligase FadD28 (Mycobacterium tuberculosis, UniProt P9WQ59); experiment: Fluorescence polarization aasay to screen for inhibitors that compete for the binding of FadD28 to a bisubstrate Measured in Biochemical System Using Plate Reader - 2147-01_Inhibitor_Dose_CherryPick_Activity.; format: functional, Mycobacterium tuberculosis H37Rv
T7 sequence (P9WQ59 whole entry): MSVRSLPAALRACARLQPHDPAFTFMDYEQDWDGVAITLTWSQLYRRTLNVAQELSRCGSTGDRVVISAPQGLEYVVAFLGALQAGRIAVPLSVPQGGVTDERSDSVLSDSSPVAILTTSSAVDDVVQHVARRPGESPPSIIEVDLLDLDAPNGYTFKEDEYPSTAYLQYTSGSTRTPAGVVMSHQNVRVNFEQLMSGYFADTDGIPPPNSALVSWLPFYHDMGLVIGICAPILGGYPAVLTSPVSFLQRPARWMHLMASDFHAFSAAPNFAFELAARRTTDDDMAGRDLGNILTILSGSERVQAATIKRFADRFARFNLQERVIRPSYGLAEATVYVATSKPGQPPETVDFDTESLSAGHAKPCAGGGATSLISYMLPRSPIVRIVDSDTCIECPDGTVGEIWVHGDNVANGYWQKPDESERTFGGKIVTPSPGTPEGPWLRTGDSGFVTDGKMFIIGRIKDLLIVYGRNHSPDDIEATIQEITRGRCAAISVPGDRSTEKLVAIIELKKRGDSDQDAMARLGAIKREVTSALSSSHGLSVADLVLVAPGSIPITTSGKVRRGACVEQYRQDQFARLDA

[16] = inhibitors of intracellular T. cruzi replication, confirmation, NIH3T3 host cells, beta-gal luminescence (AID 2044); format: functional, cell-based;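 also: intracellular parasites grown in NIH/3T3 mouse fibroblasts as host cells; luminescent beta-galactosidase reporter signal from transgenic T. cruzi replicating inside host cells; inhibitors lower the luminescence signal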
[17] = target: Fructose-bisphosphate aldolase (Mycobacterium tuberculosis, UniProt P9WQA3); experiment: Fluorescence-based biochemical high throughput dose response assay for inhibitors of the fructose-bisphosphate aldolase (FBA) of M. tuberculosis.; format: functional
Protein S100-A4 = Protein S100-A4 (Homo sapiens, UniProt P26447); experiment: S100A4-myosin IIA binding inhibitor potency, dose response, biochemical, fluorescence polarization, cherry-picked hits (AID 687001); format: functional
Vero = experiment: Vero cell toxicity, dose response, cytotoxicity control, plate reader, cherry-pick samples (AID 687020); format: functional, cell-based; conditions: Chlorocebus sabaeus
[18] = HEK293T cytotoxicity, dose response, cytotoxicity control for miR-122 modulator project, cell-based, inhibitor set, cherry-pick, set 2 (AID 720697); format: functional
[19] = miR-122 activators in hepatoma reporter cells, dose response, cell-based, Huh7 psiCHECK-miR122, Renilla luciferase, cherry-picked (AID 651956); format: functional;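 also: huh7 hepatoma cells stably carrying a psiCHECK-2 miR-122 sensor plasmid; renilla luciferase signal reporting endogenous miR-122 activity after 48 h compound exposure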
[20] = HEK293T cytotoxicity, dose response, cytotoxicity control for miR-122 modulator project, cell-based, activator set, cherry-pick (AID 720690); format: functional;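 also: HEK293T human cells scored for general mammalian cytotoxicity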

T6 sequence (Q79MP6 whole entry): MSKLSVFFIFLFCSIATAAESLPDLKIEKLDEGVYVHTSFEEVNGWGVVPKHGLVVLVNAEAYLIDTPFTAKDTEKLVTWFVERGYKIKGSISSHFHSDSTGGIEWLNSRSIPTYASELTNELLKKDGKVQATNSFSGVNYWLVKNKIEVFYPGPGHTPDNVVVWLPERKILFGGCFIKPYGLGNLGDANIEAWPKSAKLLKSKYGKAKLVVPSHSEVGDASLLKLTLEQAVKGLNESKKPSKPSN
T5 sequence (Q5J463 whole entry): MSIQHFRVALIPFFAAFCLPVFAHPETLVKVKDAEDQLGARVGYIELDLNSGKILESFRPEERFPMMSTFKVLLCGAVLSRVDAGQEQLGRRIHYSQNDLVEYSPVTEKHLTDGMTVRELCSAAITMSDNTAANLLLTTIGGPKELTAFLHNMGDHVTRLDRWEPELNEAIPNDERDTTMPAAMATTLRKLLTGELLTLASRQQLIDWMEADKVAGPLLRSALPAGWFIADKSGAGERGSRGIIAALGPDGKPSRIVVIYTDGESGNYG
Chain of Botulinum neurotoxin type F (P30996 1-436 limits assumed): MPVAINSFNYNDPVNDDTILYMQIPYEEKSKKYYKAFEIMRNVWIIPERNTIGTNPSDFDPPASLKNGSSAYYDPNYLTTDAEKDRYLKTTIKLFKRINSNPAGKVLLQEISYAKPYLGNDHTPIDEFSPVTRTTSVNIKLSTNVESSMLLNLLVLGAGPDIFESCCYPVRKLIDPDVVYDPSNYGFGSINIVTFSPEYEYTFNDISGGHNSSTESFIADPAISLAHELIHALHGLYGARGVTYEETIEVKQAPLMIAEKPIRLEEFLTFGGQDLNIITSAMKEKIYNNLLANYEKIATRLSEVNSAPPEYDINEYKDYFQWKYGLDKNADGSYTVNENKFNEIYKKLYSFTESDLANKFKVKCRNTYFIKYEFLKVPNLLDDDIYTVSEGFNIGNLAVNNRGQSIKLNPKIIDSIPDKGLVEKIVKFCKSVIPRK
Chain of Protein S100-A4 (P26447 whole entry): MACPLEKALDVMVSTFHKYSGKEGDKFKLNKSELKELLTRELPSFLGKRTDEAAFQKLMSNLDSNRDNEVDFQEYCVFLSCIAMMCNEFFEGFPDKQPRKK
Chain of Disintegrin and metalloproteinase domain-containing protein 17 (P78536 whole entry, the tested form may be a part): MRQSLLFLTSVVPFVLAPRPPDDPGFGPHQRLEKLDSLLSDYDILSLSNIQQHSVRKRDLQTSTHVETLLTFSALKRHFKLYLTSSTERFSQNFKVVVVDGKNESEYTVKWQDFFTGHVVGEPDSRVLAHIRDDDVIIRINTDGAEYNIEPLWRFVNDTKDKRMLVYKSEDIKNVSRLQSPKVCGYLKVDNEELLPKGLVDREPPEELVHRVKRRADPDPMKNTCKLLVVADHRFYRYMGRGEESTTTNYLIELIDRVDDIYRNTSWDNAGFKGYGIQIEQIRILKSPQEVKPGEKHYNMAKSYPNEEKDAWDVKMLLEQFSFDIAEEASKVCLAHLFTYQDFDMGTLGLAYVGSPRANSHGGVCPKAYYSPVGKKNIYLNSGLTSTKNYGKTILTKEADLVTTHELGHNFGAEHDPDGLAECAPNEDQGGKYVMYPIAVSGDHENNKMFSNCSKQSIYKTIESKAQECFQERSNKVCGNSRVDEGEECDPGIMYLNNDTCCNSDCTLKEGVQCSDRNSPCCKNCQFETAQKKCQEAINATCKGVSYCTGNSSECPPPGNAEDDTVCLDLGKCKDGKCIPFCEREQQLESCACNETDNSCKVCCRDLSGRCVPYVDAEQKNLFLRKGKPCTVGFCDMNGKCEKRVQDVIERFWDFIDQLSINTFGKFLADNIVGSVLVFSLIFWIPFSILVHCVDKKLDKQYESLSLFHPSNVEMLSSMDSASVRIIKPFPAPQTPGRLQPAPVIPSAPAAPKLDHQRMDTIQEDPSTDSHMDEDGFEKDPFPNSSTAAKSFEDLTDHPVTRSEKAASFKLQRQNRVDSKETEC
Chain of Fructose-bisphosphate aldolase (P9WQA3 whole entry): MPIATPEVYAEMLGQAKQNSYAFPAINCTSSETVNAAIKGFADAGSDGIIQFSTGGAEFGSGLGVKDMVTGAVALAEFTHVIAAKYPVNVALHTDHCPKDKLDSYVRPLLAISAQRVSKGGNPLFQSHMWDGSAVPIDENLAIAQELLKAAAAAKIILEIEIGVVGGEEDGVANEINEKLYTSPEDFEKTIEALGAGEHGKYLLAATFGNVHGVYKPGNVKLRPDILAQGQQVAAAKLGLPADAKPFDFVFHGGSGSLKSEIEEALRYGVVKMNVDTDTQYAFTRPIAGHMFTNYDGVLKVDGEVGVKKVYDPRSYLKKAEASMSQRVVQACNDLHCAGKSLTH
Chain of FAD-linked sulfhydryl oxidase ALR (P55789 whole entry): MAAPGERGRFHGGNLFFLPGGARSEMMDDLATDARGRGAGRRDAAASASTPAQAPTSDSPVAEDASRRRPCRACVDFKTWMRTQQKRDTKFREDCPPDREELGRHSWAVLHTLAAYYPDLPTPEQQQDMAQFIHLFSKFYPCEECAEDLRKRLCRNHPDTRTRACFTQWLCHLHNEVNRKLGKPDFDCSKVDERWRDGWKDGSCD

Question: For Cc1cc(SCC(=O)c2ccc(O)c(O)c2)n2nc(C)c(-c3ccccc3)c2n1, which EC50 [1] is on record?
Answer: 7.32 µM (active)

Question: What about the IC50 [2] of the same compound?
Answer: > 69.5 µM (inactive)

Question: What about the EC50 (Streptokinase A) of the same compound?
Answer: > 150 µM (not active)

Question: And the EC50 (Streptococcus)?
Answer: 13.9 µM (active)

Question: For COc1cc(C(c2c(C)n[nH]c2O)c2c(C)n[nH]c2O)ccc1OS(=O)(=O)c1ccccc1, which IC50 [3] is on record?
Answer: 72.9 µM (inactive)

Question: And the IC50 [4]?
Answer: 45.2 µM (active)

Question: And the EC50 (Protein RecA)?
Answer: 0.217 µM (active)

Question: What about the AC50 [5] of the same compound?
Answer: 0.402 µM (active)

Question: Which IC50 (Beta-lactamase [6]) does the source give for CCc1cc(=O)oc2cc(C)c(CN3CCCC3)c(O)c12 here?
Answer: > 59.6 µM (inactive)

Question: What about the IC50 (Beta-lactamase [7]) of the same compound?
Answer: > 59.6 µM (inactive)

Question: For COc1ccc(C(=O)NC(=S)Nc2ccccc2N2CCCCC2)cc1[N+](=O)[O-], which AC50 (Cryptococcus neoformans) is on record?
Answer: > 70 µM (inactive)

Question: And the AC50 [8]?
Answer: 0.549 µM (active)

Question: Which results are given for COc1cccc(-n2c(S)nnc2CNC(=O)OC(C)(C)C)c1?
Answer: IC50 (Beta-lactamase [9]): > 59.6 µM (inactive); AC50 [10]: 12.1 µM (active); IC50 (Beta-lactamase [11]): > 59.6 µM (inactive); IC50 (Beta-lactamase [12]): > 59.6 µM (inactive)

Question: What does the source list for CCc1cccc2c(C(=O)COC(=O)c3ccc(O)cc3)c[nH]c12?
Answer: EC50 [13]: 9.37 µM (active); EC50 [14]: > 20 µM (inactive); AC50 [15]: 26.2 µM (active); EC50 [16]: 2.89 µM (active)

Question: With Cc1ccc2c(C)cc[n+](CCCS(=O)(=O)[O-])c2c1 as the compound, how does the IC50 [17] read?
Answer: 5.92 µM (active)

Question: Which AC50 (Protein S100-A4) does the source give for COc1cccc2c1C(=O)c1c(O)c3c(c(O)c1C2=O)CC(O)(C(C)=O)CC3OC1CC(O)C(O)C(C)O1 (stereo unspecified) here?
Answer: 0.395 µM (active)

Question: For CCCCNC(=O)O[C@H]1C[C@@H]2CCN3C(=O)CCC[C@H]([C@H]1Cc1ccccc1)[C@H]23, which AC50 (Vero) is on record?
Answer: 38.6 µM (active)

Question: For C[C@@H]1CN([C@H](C)CO)C(=O)c2cc(NC(=O)Nc3cccc4ccccc34)ccc2O[C@@H](C)CCCCO[C@@H]1CN(C)Cc1ccc2c(c1)OCO2, which AC50 [18] is on record?
Answer: < 0.195 µM (active)

Question: And the AC50 [19]?
Answer: 9.62 µM (active)

Question: What about the AC50 [20] of the same compound?
Answer: 22 µM (active)
